From paper PMC2877875, “Characterisation of the bifunctional dihydrofolate synthase–folylpolyglutamate synthase from Plasmodium falciparum; a potential novel target for antimalarial antifolate inhibition” (Molecular and Biochemical Parasitology, 2010)
Entries after “also recorded” stand apart in the source; their conditions may differ. Like-named read-outs stand apart in the source and are kept apart here.

How the values were obtained:
[1] = biological target: PfDHFS–FPGS (FPGS activity) (Plasmodium falciparum, UniProt Q8IE69); assay: biochemical; format: biochemical
Experimental: (§1) A standard reaction mix based on those established for bacterial and eukaryotic DHFS/FPGS assays was adopted [[28,36,37]] and contained 10 mM MgCl2, 5 mM DTT, 200 mM KCl, 100 mM Tris, 50 mM glycine, 1 mg/ml BSA, 45 μg/ml DHFS–FPGS protein (0.72 μM), pH 10. […] The enzyme reactions were carried out at 37 °C for 60 min in triplicate and stopped by transferring reaction tubes into an ice-cold water bath. Reaction mixes were then spotted onto DE81 ion-exchange paper (pre-treated with 0.5 M EDTA, pH 8.0 and then dried), air dried and the unreacted label washed away with 125 ml of 40 mM NaCl, 10 mM Tris–HCl, pH 8.0, four times, 20 min each wash. The filter was then exposed to a storage phosphor screen overnight and the screen scanned with a quantitative imager (Typhoon Trio Variable Mode Imager, GE Healthcare, UK). The measured counts were converted to concentrations by comparison with a standard curve derived from known amounts of the radiolabelled L-glutamate subsequently used as substrate in the assays. The enzyme activity data was analysed using the Matlab software package. Regression curves were fitted using the least squares routine.

[2] = test system: bacterial and mammalian FPGS; settings: read-out: Km with bacterial and mammalian FPGS; cited from earlier work
P. falciparum FCB strain = assay: Metabolic labelling of parasite cultures with 3H-folinic acid and 3H-methotrexate, HPLC analysis; format: cell-based, Plasmodium falciparum; settings: for conversion to polyglutamylated forms in parasite cultures: 3H label 0.5 μCi/ml, ring-stage culture, 20 h incubation, HPLC
Experimental: 0.5 μCi/ml of either ^3H-folinic acid or ^3H-methotrexate at the same specific activity was used to label parallel 50 ml synchronous cultures of P. falciparum FCB strain. Label was incubated with ring-stage (6–10 h) parasites, which were harvested at the late trophozoite stage 20 h later. The labelled products were extracted by the boiling method and analysed using HPLC on a C18 column eluted with an acetonitrile gradient as described.

[3] = biological target: PfDHFS–FPGS (DHFS activity) (Plasmodium falciparum, UniProt Q8IE69); assay: DHFS assay of recombinant PfDHFS–FPGS ([14C]glutamate incorporation); format: biochemical; settings: for Km: low co-substrate concentrations (ATP or glutamate ≤25 μM), Michaelis–Menten fit, read-out: apparent Km, DHFS activity
Experimental: as §1

bacterial DHFS = settings: cited from earlier work
P. falciparum cultures = assay: Growth of P. falciparum cultures (dose–response); format: cell-based, Plasmodium falciparum
[4] = substrate: N[C@@H](CCC(=O)O)C(=O)O; assay: DHFS assay of recombinant PfDHFS–FPGS ([14C]glutamate incorporation); format: biochemical; settings: other: low co-substrate concentrations (ATP or glutamate ≤25 μM), Michaelis–Menten fit; 37.0 °C
Experimental: as §1

[5] = low substrate concentrations, 25 μM substrate, 25 μM ATP, 18 μM glutamate

5,6,7,8-tetrahydrofolate [THF]
processing as substrate for polyglutamylation by FPGS activity (words) [1]: efficiently converted to polyglutamylated forms | Km [2]: 2 to 5 µM

Nc1nc(=O)c2c([nH]1)NCC(CNc1ccc(C(=O)N[C@@H](CCC(=O)O)C(=O)O)cc1)N2C=O (mixture of isomers) [folinic acid]
conversion to polyglutamylated forms in parasite cultures (P. falciparum FCB strain): almost complete

Nc1ncnc2c1ncn2[C@@H]1O[C@H](COP(=O)(O)OP(=O)(O)OP(=O)(O)O)[C@@H](O)[C@H]1O [ATP]
Km [3]: 22.8 µM

Nc1nc(=O)c2c([nH]1)NCC(CNc1ccc(C(=O)N[C@@H](CCC(=O)O)C(=O)O)cc1)=N2 [DHF, 7,8-dihydrofolate]
processing as substrate for polyglutamylation by FPGS activity (words) [1]: very poor substrates | polyglutamylated forms of folate produced compared with that produced from THF ([1]; high substrate concentrations, 100 μM substrate, 2 mM ATP, 200 μM glutamate): 12% | processing as substrate for polyglutamylation by FPGS activity (words) ([1]; listed as dihydrofolate): negligibly processed | polyglutamylated forms of folate produced compared with that produced from THF [1, 5]: 21%

Nc1nc2c(c(=O)[nH]1)N=C(CNc1ccc(C(=O)O)cc1)CN2 [DHP, 7,8-dihydropteroate]
Km (bacterial DHFS): 0.4 to 6 µM | DHP concentration at which DHFS activity peaked ([3]; ATP 0.5 mM, glutamate up to ∼1 mM): 1 to 2 µM | dissociation constant KA for the substrate binding (catalytic site) ([3]; best-fit model a (partial substrate inhibition, three substrates), ATP 6 μM to 5 mM, glutamate 25 μM to 1 mM, n = 15): 0.50 µM | Kd ([3]; best-fit model a, ATP 6 μM to 5 mM, glutamate 25 μM to 1 mM, n = 15, read-out: dissociation constant KABCA for the substrate (DHP) inhibition (inhibitory site)): 1250 nM | DHP concentration above which substrate inhibition became significant ([3]; high ATP and glutamate): > 2 µM | Km [3]: 0.88 µM

Nc1nc2c(c(=O)[nH]1)N=C(CNc1ccc(P(=O)(O)CC(CCC(=O)O)C(=O)O)cc1)CN2 (stereo not shown) [H2-1]
Ki [1]: 630 nM | IC50 [3]: 410 nM | Ki [3]: 140 nM | potency for DHFS activity over FPGS activity ([3]; from Ki values): about 5 fold

Nc1nc2c(c(=O)[nH]1)N=C(CNc1ccc(C(=O)N[C@@H](CCP(=O)(O)CC(CCC(=O)O)C(=O)O)C(=O)O)cc1)CN2 (stereo partly shown) [H2-2]
IC50 [1]: 390 nM | Ki [1]: 91 nM | potency for FPGS activity over DHFS activity ([1]; from Ki values): ~20 fold | Ki [3]: 1690 nM

CN(Cc1cnc2nc(N)nc(N)c2n1)c1ccc(C(=O)N[C@@H](CCC(=O)O)C(=O)O)cc1 [MTX, methotrexate]
processing as substrate for polyglutamylation by FPGS activity (words) [1]: negligibly processed; also recorded: not a substrate | inhibition of FPGS activity ([1]; MTX up to 1.0 mM, THF 10 μM, ATP 5 mM, glutamate 275 μM): inhibited neither DHFS nor FPGS; also recorded: neither the DHFS nor FPGS activities showed any sensitivity | IC50 (P. falciparum cultures; Plasmodium falciparum, average for four different strains): ~40 nM | effect on parasite growth at extremely low levels (P. falciparum cultures; around 1 nM): stimulatory effect on growth | inhibition of DHFS activity ([3]; MTX up to 1.0 mM, DHP 10 μM, ATP 5 mM, glutamate 275 μM): inhibited neither DHFS nor FPGS; also recorded: neither the DHFS nor FPGS activities showed any sensitivity | conversion to polyglutamylated forms in parasite cultures (P. falciparum FCB strain): no polyglutamylated versions of MTX could be detected; also recorded: No polyglutamylated forms of MTX could be detected | accumulation (uptake and retention) in parasites (P. falciparum FCB strain; equal initial label concentrations, 20 h): somewhat higher levels than folinic acid; also recorded: exceeded that of folinic acid

Nc1nc2ncc(CNc3ccc(P(=O)(O)CC(CCC(=O)O)C(=O)O)cc3)nc2c(=O)[nH]1 (stereo not shown) [compound 1, 2-[[[4-[N-[(2-amino-3,4-dihydro-4-oxo-6-pteridinyl)methyl]amino]phenyl](hydroxy)phosphinoyl]methyl]pentane-1,5-dioic acid]
strong inhibition of DHFS activity by the oxidised form ([3]; oxidised (unreduced) form): not its oxidised form

Nc1nc(=O)c2nc(CNc3ccc(C(=O)N[C@@H](CCC(=O)O)C(=O)O)cc3)cnc2[nH]1 [folic acid]
processing as substrate for polyglutamylation by FPGS activity (words) [1]: very poor substrates; also recorded: very low level of activity | processing as substrate for polyglutamylation by FPGS activity (words) ([1]; listed as folate): negligibly processed | polyglutamylated forms of folate produced compared with that produced from THF [1, 5]: insignificant

B1: PfDHFS–FPGS (DHFS activity) (Plasmodium falciparum 3D7) (protein)
chain: MEKNQNDKSNKNDIIHMNDKSGNYDKNNINNFIDKNDEHDMSDILHKINNEEKKYEEIKSYSECLELLYKTHALKLGLDNPKKLNESFGHPCDKYKTIHIAGTNGKGSVCYKIYTCLKIKKFKVGLFSSPHIFSLRERIIVNDEPISEKELIHLVNEVLNKAKKLYINPSFFEIITLVAFLHFLNKKVDYAIIETGIGGRLDATNILTKPEVIVITSIGYDHLNILGDNLPIICNEKIGIFKKDANVVIGPSVAIYKNVFDKAKELNCTIHTVVPEPRGERYNEENSRIALRTLEILNISIDYFLKSIIPIKPPLRIQYLATEQIQHIKKKFSPDNLEHNVQYPLAVILDVGHNETAIDRLCTDINYFHKGQNIRICISITKPRNLSVFHPFIAQFGDTLKDIFYLPSLNERTYDFEEIVEMLNNEEEIKNEIKELILSSSKKVGKWLAHEKQGNINEEDALKLYKRGCIPLIIKNAFLECCKDNSILLVCGTFFVFDEVLNVFDIHSDMQDTIFMNEPSLV
Km [4]: 5.97 µM
